These results are taken from patent US12398154B2, “Azaquinazoline pan-KRas inhibitors” (Mirati Therapeutics, Inc., priority 2020, dated 2025).

The target in assay [1] is KRas G12R (Homo sapiens, UniProt P01116, G12R). The experiment in a line: biochemical.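 Also: TR-FRET displacement assay of compound binding to KRas, read after one hour at room temperature, potency from a four-parameter fit of percent-of-control values.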
Procedure: (§1) The ability of a compound to bind to KRas was measured using a TR-FRET displacement assay. […] After a 60-minute incubation at room temperature, the reaction was measured using a BMG LABTECH CLARIO star Plus via TR-FRET. […] The POC values were fit to a 4-parameter IC50 equation and the IC50 value reported.
The test system of assay [2] is pERK in ASPC1 cells. The experiment in a line: Inhibition of KRas phosphorylation of ERK (Cisbio HTRF pERK assay). The note with it: Homo sapiens, ASPC1, read-out: Inhibition (HTRF IC50) of KRas-mediated Phosphorylation of ERK, AsPC-1.
Assay [3] concerns pERK in A549 cells. The description is as above. Particulars: Homo sapiens, A549, read-out: Inhibition (HTRF IC50) of KRas-mediated Phosphorylation of ERK, A549.
Procedure: (§2) To harvest cells from flask using 0.05% Trypsin/EDTA solution. Add 10 mL of media to stop trypsinizing. Pipette the cells into a conical bottom 50 mL centrifuge tube and centrifuge 5 min×1000 rpm. • 2. Re-suspend the cell pellet in media, take a cell count, and then adjust the cell density using fresh media. • 3. Seed 6,000 cells into cell culture plate with 50 μL media. […] Incubate cell plate overnight in a 37° C., 5% CO2 incubator. • Compound titrations • 1. Use Tecan to complete the compound addition. Compounds start from 10 uM top, 3-fold dilution, and 10 doses. The final DMSO concentration is 0.8%. Dispensed 0.2 uM Trametinib as Min control. • 2. Incubate cell plate for 3 hrs in the incubator. • Detection with cisbio pERK HTRF kit • 1. […] At the end of the compound treatment, flick-off the media. • 3. Add 35 μL of lysis buffer per well using a Multidrop Combi. Then place on a plate agitator shaking at 300 rpm at 4° C. for 40 mins. • 4. Make up the HTRF antibody buffer. For each assay plate, mix 50 μL of d2-conjugate antibody with 950 μL of detection buffer. Similarly, mix 50 μL of Cryptate antibody with 950 μL of detection buffer. Then mix the two diluted antibodies together. • 5. Dispense 3.4 μL the antibody buffer to wells of an empty assay plate. Seal the plate and centrifuge plate 30 sec×1000 rpm. • 6. At the end of the 4° C. lysis, centrifuge the lysate plates 3 mins×1500 rpm. • 7. Use the Bravo to transfer 13.6 μL of lysate from cell culture plate to assay plate.
(§3) Then incubate assay plate for 2 hrs at room temperature. […] At the end of incubation, read plate on the Envision after centrifuging plate 30 sec× • 1000 rpm.
Assay [4] has as its target KRas G12D (Homo sapiens, UniProt P01116, G12D). Description: biochemical.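 Also: TR-FRET displacement binding assay on KRas, read after a one-hour incubation at room temperature, IC50 fitted from percent-of-control values.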
Procedure: as §1
Assay [5] deals with pERK in PSN1 cells. Description: Inhibition of KRas phosphorylation of ERK (Cisbio HTRF pERK assay). Particulars: Homo sapiens, PSN1, 3 h, read-out: Inhibition (HTRF IC50) of KRas-mediated Phosphorylation of ERK, PSN1.
For assay [6], the system named is pERK in HCT116 cells. Described as above. Particulars: Homo sapiens, HCT-116, read-out: Inhibition (HTRF IC50) of KRas-mediated Phosphorylation of ERK, HCT116.
Assay [7] concerns pERK in H727 cells. The description is as above. The note with it: Homo sapiens, NCI-H727, read-out: Inhibition (HTRF IC50) of KRas-mediated Phosphorylation of ERK, H727.
Assay [8] addresses KRas G12V (Homo sapiens, UniProt P01116, G12V). Description: biochemical.
Procedure: as §1
Assay [9] has as its system pERK in H358 cells. The experiment in a line: Inhibition of KRas phosphorylation of ERK (Cisbio HTRF pERK assay). The note with it: Homo sapiens, NCI-H358, read-out: Inhibition (HTRF IC50) of KRas-mediated Phosphorylation of ERK, H358.
Assay [10] has as its system pERK in H460 cells. The assay is described as above. Particulars: Homo sapiens, NCI-H460, read-out: Inhibition (HTRF IC50) of KRas-mediated Phosphorylation of ERK, H460.
Procedure: as §2, §3
Assay [11] relates to pERK in MKN1 cells. The description is as above. The note with it: Homo sapiens, MKN-1, 3 h, read-out: Inhibition (HTRF IC50) of KRas-mediated Phosphorylation of ERK, MKN1.

Sequence of KRas G12R (P01116 1-169 isoform P01116-2 G12R): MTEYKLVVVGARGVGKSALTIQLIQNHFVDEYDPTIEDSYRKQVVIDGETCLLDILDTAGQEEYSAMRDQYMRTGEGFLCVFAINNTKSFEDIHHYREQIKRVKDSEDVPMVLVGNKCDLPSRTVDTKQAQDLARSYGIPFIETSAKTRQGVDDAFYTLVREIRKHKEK
Sequence of KRas G12V (P01116 1-169 isoform P01116-2 G12V): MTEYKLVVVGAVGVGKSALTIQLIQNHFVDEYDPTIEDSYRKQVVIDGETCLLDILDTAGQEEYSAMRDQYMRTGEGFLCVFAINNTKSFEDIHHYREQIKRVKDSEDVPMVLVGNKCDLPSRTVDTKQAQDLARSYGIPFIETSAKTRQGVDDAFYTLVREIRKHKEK
Sequence of KRas G12D (P01116 1-169 isoform P01116-2 G12D): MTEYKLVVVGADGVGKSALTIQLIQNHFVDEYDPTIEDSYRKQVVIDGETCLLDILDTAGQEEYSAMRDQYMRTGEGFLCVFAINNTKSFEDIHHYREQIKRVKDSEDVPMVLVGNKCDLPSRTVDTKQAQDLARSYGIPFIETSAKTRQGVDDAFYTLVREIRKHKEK

For `C[C@@]1(O)CCCN(c2nc(OC[C@@]34CCCN3C[C@H](F)C4)nc3c(F)c(-c4cc(O)cc5ccc(F)c(Br)c45)ncc23)C1` [Example 399, (R)-1-(7-(8-bromo-7-fluoro-3-hydroxynaphthalen-1-yl)-8-fluoro-2-(((2R,7aS)-2-fluorohexahydro-1H-pyrrolizin-7a-yl)methoxy)pyrido[4,3-d]pyrimidin-4-yl)-3-methylpiperidin-3-ol], the concentration for half-maximal inhibition (IC50) in assay [1] is not above 2 nM; in assay [2], 3 nM; in assay [3], 14 nM; in assay [4], not above 2 nM; in assay [5] it was 357 nM; in assay [6] it was 23 nM. For the same compound, the IC50 in [7] is 16 nM; in [8], not above 2 nM; in assay [9] it was 4 nM; in assay [10], 18 nM; in [11], 1 nM.
Take `CC1(O)COCCN(c2nc(OC[C@@]34CCCN3C[C@H](F)C4)nc3c(F)c(-c4cc(O)cc5ccc(F)c(Br)c45)ncc23)C1` (stereo partly drawn) [Example 400, 4-(7-(8-bromo-7-fluoro-3-hydroxynaphthalen-1-yl)-8-fluoro-2-(((2R,7aS)-2-fluorohexahydro-1H-pyrrolizin-7a-yl)methoxy)pyrido[4,3-d]pyrimidin-4-yl)-6-methyl-1,4-oxazepan-6-ol]: the IC50 in [1] was not above 2 nM; in [2], 27 nM; in assay [3], 62 nM; in assay [4] it was not above 2 nM; in assay [5], 3540 nM; in assay [6] it was 113 nM. The IC50 in [7] is 87 nM; in assay [8] it was not above 2 nM; in assay [9] it was 9 nM; in assay [10], 41 nM; in [11], 7 nM.
For the compound `Oc1cc(-c2ncc3c(N4CC5CC(O)C(C5)C4)nc(OC[C@@]45CCCN4C[C@H](F)C5)nc3c2F)c2c(Br)c(F)ccc2c1` (stereo partly drawn) [Example 402, 3-(7-(8-bromo-7-fluoro-3-hydroxynaphthalen-1-yl)-8-fluoro-2-(((2R,7aS)-2-fluorohexahydro-1H-pyrrolizin-7a-yl)methoxy)pyrido[4,3-d]pyrimidin-4-yl)-3-azabicyclo[3.2.1]octan-6-ol], the IC50 was not above 2 nM in [1]; 12 nM in assay [2]; 34 nM in assay [3]; not above 2 nM in assay [4]; 514 nM in assay [5]; 46 nM in [6]. In addition, the IC50 in [7] is 14 nM; in [8] it was not above 2 nM; in assay [9], 4 nM; in assay [10], 51 nM; in assay [11], 3 nM.
On to `Oc1cc(-c2ncc3c(N4CCCC5(CC(O)C5)C4)nc(OC[C@@]45CCCN4C[C@H](F)C5)nc3c2F)c2c(Br)c(F)ccc2c1` (stereo partly drawn) [Example 407, 6-(7-(8-bromo-7-fluoro-3-hydroxynaphthalen-1-yl)-8-fluoro-2-(((2R,7aS)-2-fluorohexahydro-1H-pyrrolizin-7a-yl)methoxy)pyrido[4,3-d]pyrimidin-4-yl)-6-azaspiro[3.5]nonan-2-ol], for which the half-inhibitory concentration (IC50) was not above 2 nM in [1]; 27 nM in assay [2]; 27 nM in assay [3]; not above 2 nM in assay [4]; 1330 nM in assay [5]; 41 nM in [6]. For the same compound, the IC50 was 15 nM in [7]; not above 2 nM in assay [8]; 3 nM in assay [9]; 26 nM in [10]; 15 nM in assay [11].
On to `CN(C)C(=O)c1cc2n(n1)CCCN(c1nc(OC[C@@]34CCCN3C[C@H](F)C4)nc3c(F)c(-c4cc(O)cc5ccc(F)c(Br)c45)ncc13)C2` [Example 412, 5-(7-(8-bromo-7-fluoro-3-hydroxynaphthalen-1-yl)-8-fluoro-2-(((2R,7aS)-2-fluorohexahydro-1H-pyrrolizin-7a-yl)methoxy)pyrido[4,3-d]pyrimidin-4-yl)-N,N-dimethyl-5,6,7,8-tetrahydro-4H-pyrazolo[1,5-a][1,4]diazepine-2-carboxamide], for which the IC50 was not above 2 nM in [1]; 19 nM in [2]; 242 nM in assay [3]; not above 2 nM in [4]; 5980 nM in [5]; 586 nM in [6]. In addition, the IC50 in [7] was 51 nM; in [8], not above 2 nM; in assay [9], 11 nM; in [10] it was 413 nM; in assay [11] it was 34 nM.
With `C[C@@]1(O)CCCN(c2nc(OC[C@@]34CCCN3C[C@H](F)C4)nc3c(F)c(-c4cc(O)cc5ccc(F)c(Cl)c45)ncc23)C1` [Example 418, (R)-1-(7-(8-chloro-7-fluoro-3-hydroxynaphthalen-1-yl)-8-fluoro-2-(((2R,7aS)-2-fluorohexahydro-1H-pyrrolizin-7a-yl)methoxy)pyrido[4,3-d]pyrimidin-4-yl)-3-methylpiperidin-3-ol], the IC50 in [1] was 3 nM; in [2] it was 25 nM; in [3] it was 74 nM; in assay [4] it was not above 2 nM; in assay [5] it was 596 nM; in [6], 60 nM. The IC50 is 32 nM in assay [7]; not above 2 nM in [8]; 11 nM in assay [9]; 52 nM in assay [10]; 3 nM in assay [11].
For `Oc1cc(-c2ncc3c(N4CC5CC(O)C(C5)C4)nc(OC[C@@]45CCCN4C[C@H](F)C5)nc3c2F)c2c(Cl)c(F)ccc2c1` (stereo partly drawn) [Example 421, 3-(7-(8-chloro-7-fluoro-3-hydroxynaphthalen-1-yl)-8-fluoro-2-(((2R,7aS)-2-fluorotetrahydro-1H-pyrrolizin-7a(5H)-yl)methoxy)pyrido[4,3-d]pyrimidin-4-yl)-3-azabicyclo[3,2,1]octan-6-ol], the concentration for half-maximal inhibition (IC50) is not above 2 nM in assay [1]; 61 nM in assay [2]; 39 nM in assay [3]; 3 nM in assay [4]; 1500 nM in assay [5]; 70 nM in assay [6]. The IC50 in assay [7] is 26 nM; in assay [8], not above 2 nM; in assay [9], 16 nM; in [10] it was 73 nM; in [11] it was 4 nM.
As for `Oc1cc(-c2ncc3c(N4CCCC5(CC(O)C5)C4)nc(OC[C@@]45CCCN4C[C@H](F)C5)nc3c2F)c2c(Cl)c(F)ccc2c1` (stereo partly drawn) [Example 425, 6-(7-(8-chloro-7-fluoro-3-hydroxynaphthalen-1-yl)-8-fluoro-2-(((2R,7aS)-2-fluorohexahydro-1H-pyrrolizin-7a-yl)methoxy)pyrido[4,3-d]pyrimidin-4-yl)-6-azaspiro[3.5]nonan-2-ol], the IC50 is not above 2 nM in assay [1]; 42 nM in assay [2]; 54 nM in assay [3]; not above 2 nM in assay [4]; 921 nM in assay [5]; 73 nM in assay [6]. For the same compound, the IC50 is 37 nM in assay [7]; not above 2 nM in assay [8]; 12 nM in assay [9]; 99 nM in [10]; 5 nM in [11].
`CN(C)C(=O)c1cc2n(n1)CCCN(c1nc(OC[C@@]34CCCN3C[C@H](F)C4)nc3c(F)c(-c4cc(O)cc5ccc(F)c(Cl)c45)ncc13)C2` [Example 427, 5-(7-(8-chloro-7-fluoro-3-hydroxynaphthalen-1-yl)-8-fluoro-2-(((2R,7aS)-2-fluorohexahydro-1H-pyrrolizin-7a-yl)methoxy)pyrido[4,3-d]pyrimidin-4-yl)-N,N-dimethyl-5,6,7,8-tetrahydro-4H-pyrazolo[1,5-a][1,4]diazepine-2-carboxamide]: the IC50 was not above 2 nM in assay [1]; 32 nM in [2]; 379 nM in assay [3]; not above 2 nM in assay [4]; 7680 nM in assay [5]; 916 nM in [6]. For the same compound, the concentration for half-maximal inhibition (IC50) in assay [7] is 59 nM; in assay [8] it was not above 2 nM; in assay [9], 52 nM; in [10] it was 878 nM; in assay [11], 84 nM.
